Tested on: oral bacteria (production of volatile sulfur compounds from cysteine)
Test: cysteine challenge method for halitosis (oral malodor) efficacy, VSC response measured with Halimeter
Type: in vivo
Protocol: The ability of low doses of chlorhexidine to combat halitosis (oral malodor) was assessed using the cysteine challenge method. This measures the ability of oral bacteria to produce volatile sulfur compounds (VSC), the major odor component of oral malodor, from cysteine and is correlated with organoleptic evaluation by odor judges. Testing consists of rinsing the mouth with 5 ml of 6 mM cysteine for 30 seconds and measuring the resulting the VSC response (mainly hydrogen sulphide) with a chemical sensor instrument such as the Halimeter. Cysteine challenge testing consisted of the obtaining of an initial baseline VSC determination, the subsequent introduction of the cysteine challenge substrate, measuring the VSC response over a 20 minute period, introducing the test rinse and at set times thereafter, repeating the cysteine challenge for up to 7 hours. Inhibition was assessed quantitatively by the degree of inhibition of VSC production from cysteine by the test agent, chlorhexidine digluconate, as compared to VSC production from cysteine at baseline. Duration of the inhibition was assessed as the time it takes for VSC production with successive cysteine challenges to return to that seen at baseline.

## [H]/N=C(\N/C(=N/[H])NCCCCCCNC(=N)NC(=N)Nc1ccc(Cl)cc1)Nc1ccc(Cl)cc1 [chlorhexidine digluconate]
Chlorhexidine digluconate 0.020, 0.015, 0.0125 and 0.010% by weight of the composition
  inhibition of production of VSCs at lower concentrations: Similarly advantageous results
mouthrinse, chlorhexidine digluconate 0.025% (v/v)
  time after the rinse at which most inhibition of VSC production was seen: two
mouthrinse, chlorhexidine digluconate 0.025% (v/v), cysteine challenge 5 ml of 6 mM cysteine for 30 seconds
  inhibition of production of VSCs from cysteine compared to baseline: significantly inhibit
mouthrinse, chlorhexidine digluconate 0.025% (v/v), successive cysteine challenges for up to 7 hours
  duration of the inhibition of VSC production from the initial rinse (gradually decreasing levels): over 7 hours

Source: US20030206876A1, “Composition” (priority 2000, published 2003)
